The nature of data set [1]: pharmacokinetic analysis after oral administration in SD rats. It counts as in vivo. To be noted: 10 mg/kg based on vactosertib. The protocol: In order to confirm a change in plasma concentration in actual oral administration of the bentonite/vactosertib complex, a pharmacokinetic analysis test was performed using SD rats of about 7 weeks of age. The existing vactosertib powder, an aqueous solution dissolved with the vactosertib powder in a pH 3 buffer solution, and the bentonite/vactosertib complex were used as samples and a dose was set to 10 mg/kg based on the drug (that is, vactosertib) amount. Each sample was orally administered in rats and then the blood was collected by time, and preprocessed to analyze a plasma drug concentration.

A short description of data set [2]: elution test (drug release through semi-permeable membrane). Format: physicochemical. On the procedure:
An elution test of vactosertib was performed to confirm a change in which the vactosertib was adsorbed onto bentonite and then released. At this time, in order to predict the drug release from the upper digestive tract and the lower digestive tract, the elution was performed under different pH conditions. To this end, the test was performed by using a 0.1 N HCl solution (pH 1.2), a 50 mM acetate buffer solution (pH 4.5), and a 50 mM phosphate buffer solution (pH 7.4) as eluates, respectively. At this time, in all the eluates, Tween80 was dissolved and used at a concentration of 0.1% to impart a sufficient elution environment of vactosertib. The vactosertib powder and the bentonite/vactosertib complex were formed to a dispersion to be 1 mg/mL based on the vactosertib concentration and 0.3 mL thereof was sealed in a semi-permeable membrane and then put in 30 mL of each eluate to perform the elution. Thereafter, each eluate was collected by 0.2 mL for each predetermined time, a drug concentration was analyzed to compare elution rates.

A short description of data set [3]: adsorption rate of vactosertib onto bentonite. It counts as physicochemical. To be noted: vactosertib 0.4 mg/ml, bentonite 0.5 mg/mL, pH 1. The protocol: The adsorption rates of vactosertib and bentonite according to the pH of a solvent were evaluated. At this time, considering that the vactosertib was not dissolved in neutral, but stated to be dissolved in about 1 mg/mL from pH 3, a test was performed by setting a reaction pH to pH 1, pH 2, and pH 3. First, 10 mg/mL of the vactosertib was dissolved in a 0.1 N hydrochloric acid aqueous solution and diluted with a hydrochloric acid aqueous solution or a phosphate buffer solution (pH 1: 0.1 N hydrochloric acid aqueous solution, pH 2, pH 3: phosphate buffer solution) corresponding to each pH to adjust the concentration to 1 mg/mL. […] Thereafter, a drug concentration of a supernatant obtained by centrifugation (3,000 rpm, 5 minutes) was analyzed. Through this, the drug amount adsorbed onto the bentonite was indirectly calculated as shown in Equation 1 by removing the remaining drug amount in the supernatant from the entirely applied drug (vactosertib) to calculate an adsorption rate. […] In addition, a difference in adsorption rate according to the concentration of vactosertib was measured. […] In addition, a difference in adsorption rate according to an absolute concentration was measured.

Data set [4] has as its system ulcerative colitis mouse model induced with DSS. Put plainly: histopathological severity scores in ulcerative colitis mouse model induced with DSS. To be noted: DSS mice, Dunn's test. It counts as in vivo, C57BL/6 mice. On the procedure:
Animal tests were performed to confirm anti-inflammatory, anti-crypt cell damage, anti-ulcer, anti-edema, and anti-fibrosis effects of a vactosertib/bentonite complex using a mouse model of ulcerative colitis as one of inflammatory bowel diseases. C57BL/6 mice were selected as test animals, and in order to induce ulcerative colitis, a cycle in which an inflammation inducing substance, DSS was added in drinking water and supplied for 7 days, and then normal drinking water was supplied for 14 days was repeated. Such an inflammation inducing cycle was repeated 3 times to induce chronic inflammation, ulcer and fibrous conditions in the large intestine. To test animal groups except for control groups, from 3 weeks after a first inflammation inducing cycle was elapsed, bentonite, vactosertib, or a vactosertib/bentonite complex was administered twice a day (10 am, 4 pm), 5 days a week, and for total 6 weeks. The bentonite per 1 kg of converted mouse weight was administered with 106.8 mg, the vactosertib was administered with 20.0 mg, and the complex was administered with 126.8 mg. At this time, as the vactosertib/bentonite complex, the complex prepared in Test Example 5 was used. For each test group used in ulcerative colitis animal tests, inflammation inducing substances, test substances, doses of the test substances, and the number of test animals were shown in Table 7 below.
C57BL/6 mice used in the test were supplied from the Orient Bio Gapyeong Center (699-13, Mokdong-ri, Buk-yeon, Gapyeong-gun, Gyeonggi-do), and about 6-week-old during obtaining. For about 7 days after obtaining, the rats were quarantined and purified and then healthy animals were used for the test. When the induced material was administered, the test animals were about 8-week-old, and 52 mice were used. The test animals were bred in the 2nd floor of Clean Animal Room, Bioscience Research Institute, Research Institute of Medical Science at Inha University, and circulated in at least 10 times/hour and bred under conditions of a temperature of 22-4° C., relative humidity of 50±20%, and illuminance of 150 to 300 Lux of lighting on for 12 hours (lighting: 08:00 to 20:00). A radiation solid feed (FeedLab GMO Free Rodent Diet GF2005) for rodents was free-taken using a feeder and water sterilized by an ultraviolet-ray flowing water sterilizer and high-pressure vapor after reverse osmosis was free-taken using a polysulfonate-made drinking water bottle (300 ml).
In order to induce ulcerative colitis, 2% DSS was added in drinking water of mice and continuously supplied for first 7 days of every test cycle (3 weeks). The test substances were orally administered 2 times a day, 5 days a week, and for a total of 6 weeks at the same time of second DSS induction (FIG. 14). […]
In order to evaluate a treatment effect of test substances on ulcerative colitis, after the end of the test, the animal was anesthetized, opened, and bled and then a histopathological test was performed for each individual. Histopathological findings were subdivided and scored into severity changes of inflammation, crypt cell damage, ulcer, edema, and fibrosis as shown in Table 8 below. […]
Statistical analysis was performed using Graphpad Prism version 8.01, and a minimum unit of significance was set to p<0.05. Since all measured histopathological indexes were nonparametric data, the indexes were represented by a median, 25% to 75% values (in the box), and minimum-maximum values (both ends) in the graph (FIGS. 15 to 20). […]

The test system of data set [5] is interleukin 6 (IL-6). Put plainly: immunohistochemical IL-6 staining of large intestine tissue in DSS ulcerative colitis mouse model. To be noted: DSS 2% mice. It counts as in vivo, C57BL/6 mice. On the procedure:
Animal tests were performed to confirm anti-inflammatory, anti-crypt cell damage, anti-ulcer, anti-edema, and anti-fibrosis effects of a vactosertib/bentonite complex using a mouse model of ulcerative colitis as one of inflammatory bowel diseases. C57BL/6 mice were selected as test animals, and in order to induce ulcerative colitis, a cycle in which an inflammation inducing substance, DSS was added in drinking water and supplied for 7 days, and then normal drinking water was supplied for 14 days was repeated. Such an inflammation inducing cycle was repeated 3 times to induce chronic inflammation, ulcer and fibrous conditions in the large intestine. […]
In order to observe an immunohistochemical change of a large intestine tissue, a tissue fixed to a 10% neutral buffer formalin solution was sliced, attached to a coating slide, and deparaffinized, and then stained, and IHC of reacting with antibodies IL-6 (Interleukin-6), α-SMA ((α-smooth muscle actin), and TGF-β (transforming growth factor beta) on each slide was requested to an external institute (Notus) and the test was performed. In an individual-specific tissue slide, three constant zones were specified and imaged 100 times, a stained portion to the total area was measured, and a mean value was calculated (Zen 2.3 blue edition, Carl Zeiss, Germany). […]

Several values for one entry are separate records, joined by “and”; a condition that tells them apart may be missing. Equal entries are not always repeated. Where two headings read alike, the source gives them in different places.

For orientation: Tmax means the time from dosing to the highest level. For orientation: half-life means how long it takes for the measured level to halve. A higher half-life goes with slow loss. Take `Cc1cccc(-c2[nH]c(CNc3ccccc3F)nc2-c2ccc3ncnn3c2)n1` [Vactosertib aqueaous solution]: in data set [1], the AUCinf is 111.97 ± 33.28 µg·min/mL, the AUClast turned out to be 111.73 ± 33.05 µg·min/mL, the Cmax was found to be 2770 ± 550 ng/mL and the Tmax was 15 ± 0 min. In addition, the Tmax in data set [1] (listed as vactosertib aqueous solution) was 15 min and 15 ± 0 min. The compound also displayed a half-life in data set [1] (SD, rat, plasma, po, 10 mg/kg) of 45.9 ± 6.84 min. The Cmax in data set [1] (SD, rat, plasma, po, 10 mg/kg, read-out: maximum plasma concentration Cmax) is 2770 ± 550 ng/mL.
With `Cc1cccc(-c2[nH]c(CNc3ccccc3F)nc2-c2ccc3ncnn3c2)n1` [Vactosertib powder], the elution rate entry in data set [2] (0.1 N HCl solution (pH 1.2), 0.1% Tween80) is “rapidly eluted”. Moreover, the elution rate entry in data set [2] (at a higher pH than pH 1.2) is recorded as “significantly decreased”. In data set [1], the AUCinf turned out to be 45.46 ± 27.67 µg·min/mL, the AUClast is 44.65 ± 28.60 µg·min/mL, the Cmax came to 610 ± 570 ng/mL and the Tmax is 67.5 ± 75 min. The same compound showed a t1/2 in data set [1] of 51.96 ± 21.93 min.
Compound `Cc1cccc(-c2[nH]c(CNc3ccccc3F)nc2-c2ccc3ncnn3c2)n1` [vactosertib, N-((4-([1,2,4]triazolo[1,5-a]pyridine-6-yl)-5-(6-methylpyridin-2-yl)-1H-imidazol-2-yl)methy 1)-2-fluoroaniline] had an Adsorption rate in data set [3] of 28.0 ± 0.8%. The “median of inflammation index compared with positive control group (G2)” value in data set [4] (FIG. 15) is “slightly low”. For the same compound, the “median of crypt cell damage index compared with positive control group (G2)” value in data set [4] (FIG. 16) is given as “low in a median of a crypt cell damage index, but had no statistical significance”. Moreover, the “median of ulcer index compared with positive control group (G2)” value in data set [4] (FIG. 17) is “low in a median of an ulcer index, but had no statistical significance”. Also, the “median of fibrosis index compared with positive control group (G2)” value in data set [4] (FIG. 19) is on record as “slightly low”. Moreover, in data set [4] (FIG. 20), the “median of summed severity scores (except fibrosis) compared with positive control group (G2)” value is given as “low in a median of an ulcer index, but had no statistical significance”. For the same compound, the “reduction of IL-6 staining area as compared with G2 group” value in data set [5] amounted to 23.0%.

The values above are taken from patent US12409169B2, “Composition comprising clay mineral complex for prevention, alleviation, and treatment of inflammatory bowel disease, preparation method for composition, and method for alleviation and treatment for inflammatory bowel disease” (Korea Institute Of Geoscience And Mineral Resources, priority 2019, dated 2025).
